Assay results published in ChEMBL document CHEMBL1201862, “PubChem BioAssay data set” (2004).
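Compound exposure: 48 hours, 5 concentrations, 96-well plates. GI50 marks 50% less growth.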 The source made the active and inactive calls. No stated cut-off is given here; in the data, active = GI50 up to about 1.1 µM and inactive = higher.

Columns and labels:
Assay in all cases: inhibition of tumour cell growth, NCI panel, 48 h
SN12C = tested on: SN12C
A498 = tested on: A498
BT-549 = tested on: BT-549
HCT-15 = tested on: HCT-15
EKVX = tested on: EKVX
786-0 = tested on: 786-0
HOP-62 = tested on: HOP-62
LOX IMVI = tested on: LOX IMVI
UACC-62 = tested on: UACC-62
K562 = tested on: K562
OVCAR-8 = tested on: OVCAR-8
PC-3 = tested on: PC-3
SK-MEL-5 = tested on: SK-MEL-5
MDA-MB-435 = tested on: MDA-MB-435
KM12 = tested on: KM12
NCI-H522 = tested on: NCI-H522
OVCAR-5 = tested on: OVCAR-5
MDA-MB-231 = tested on: MDA-MB-231
IGROV-1 = tested on: IGROV-1
Malme-3M = tested on: Malme-3M
NCI-H226 = tested on: NCI-H226
SNB-19 = tested on: SNB-19
DU-145 = tested on: DU-145
MCF7 = tested on: MCF7
Hs-578T = tested on: Hs-578T
CCRF-CEM = tested on: CCRF-CEM
NCI-H23 = tested on: NCI-H23
CAKI-1 = tested on: CAKI-1
UO-31 = tested on: UO-31
SF-268 = tested on: SF-268
TK-10 = tested on: TK-10
HT-29 = tested on: HT-29
T47D = tested on: T47D
SW-620 = tested on: SW-620
OVCAR-3 = tested on: OVCAR-3
ACHN = tested on: ACHN
A549 = tested on: A549
NCI-H460 = tested on: NCI-H460
SK-MEL-28 = tested on: SK-MEL-28
HCT-116 = tested on: HCT-116
SK-OV-3 = tested on: SK-OV-3
U-251 = tested on: U-251
OVCAR-4 = tested on: OVCAR-4
MDA-N = tested on: MDA-N
HCC 2998 = tested on: HCC 2998
HL-60 = tested on: HL-60
NCI/ADR-RES = tested on: NCI/ADR-RES
COLO 205 = tested on: COLO 205
SK-MEL-2 = tested on: SK-MEL-2
SNB-75 = tested on: SNB-75
SF-295 = tested on: SF-295
UACC-257 = tested on: UACC-257
SF-539 = tested on: SF-539
RXF 393 = tested on: RXF 393
M14 = tested on: M14
MOLT-4 = tested on: MOLT-4
RPMI-8226 = tested on: RPMI-8226
SR = tested on: SR

O=C(Nc1cccc2ccccc12)c1ccccc1
GI50 (SN12C): > 100 µM (inactive) | GI50 (A498): > 100 µM (inactive) | GI50 (BT-549): > 100 µM (inactive) | GI50 (HCT-15): 98.2 µM | GI50 (EKVX): > 100 µM (inactive) | GI50 (786-0): > 100 µM (inactive) | GI50 (HOP-62): 81.3 µM (inactive) | GI50 (LOX IMVI): > 100 µM (inactive) | GI50 (UACC-62): 86.7 µM (inactive) | GI50 (K562): 76.6 µM (inactive) | GI50 (OVCAR-8): > 100 µM (inactive) | GI50 (PC-3): 72.3 µM (inactive) | GI50 (SK-MEL-5): 53.5 µM (inactive) | GI50 (MDA-MB-435): 22.6 µM (inactive) | GI50 (KM12): > 100 µM (inactive) | GI50 (NCI-H522): 68.7 µM (inactive) | GI50 (OVCAR-5): > 100 µM (inactive) | GI50 (MDA-MB-231): > 100 µM (inactive) | GI50 (IGROV-1): > 100 µM (inactive) | GI50 (Malme-3M): 88.3 µM (inactive) | GI50 (NCI-H226): > 100 µM (inactive) | GI50 (SNB-19): > 100 µM (inactive) | GI50 (DU-145): > 100 µM (inactive) | GI50 (MCF7): 8.89 µM (inactive) | GI50 (Hs-578T): > 100 µM (inactive) | GI50 (CCRF-CEM): 27.1 µM (inactive) | GI50 (NCI-H23): > 100 µM (inactive) | GI50 (CAKI-1): 99.1 µM (inactive) | GI50 (UO-31): > 100 µM (inactive) | GI50 (SF-268): > 100 µM (inactive) | GI50 (TK-10): > 100 µM (inactive) | GI50 (HT-29): 47.5 µM (inactive) | GI50 (T47D): 11.5 µM (inactive) | GI50 (SW-620): 34.4 µM (inactive) | GI50 (OVCAR-3): 11.8 µM (inactive) | GI50 (ACHN): > 100 µM (inactive) | GI50 (A549): > 100 µM (inactive) | GI50 (NCI-H460): > 100 µM (inactive) | GI50 (SK-MEL-28): > 100 µM (inactive) | GI50 (HCT-116): > 100 µM (inactive) | GI50 (SK-OV-3): > 100 µM (inactive) | GI50 (U-251): > 100 µM (inactive) | GI50 (OVCAR-4): 24.5 µM (inactive) | GI50 (MDA-N): 77.6 µM (inactive) | GI50 (HCC 2998): > 100 µM (inactive) | GI50 (HL-60): > 100 µM (inactive) | GI50 (NCI/ADR-RES): > 100 µM (inactive) | GI50 (COLO 205): 97.7 µM (inactive) | GI50 (SK-MEL-2): 91.2 µM (inactive) | GI50 (SNB-75): 21.8 µM (inactive) | GI50 (SF-295): > 100 µM (inactive) | GI50 (UACC-257): > 100 µM (inactive) | GI50 (SF-539): 64.7 µM (inactive) | GI50 (RXF 393): 26.7 µM (inactive) | GI50 (M14): > 100 µM (inactive)

COc1cc(C2SCC(=O)N2c2ccc(Oc3ccc(Cl)cc3)c(Cl)c2)cc(OC)c1OC (centres undefined)
GI50 (SN12C): 27.3 µM (inactive) | GI50 (BT-549): 16.5 µM (inactive) | GI50 (HCT-15): 26.2 µM | GI50 (EKVX): 23.6 µM (inactive) | GI50 (786-0): 18.3 µM (inactive) | GI50 (HOP-62): 20.4 µM (inactive) | GI50 (LOX IMVI): 17.9 µM (inactive) | GI50 (UACC-62): 16 µM (inactive) | GI50 (K562): 33.4 µM (inactive) | GI50 (OVCAR-8): 17 µM (inactive) | GI50 (PC-3): 15.4 µM (inactive) | GI50 (SK-MEL-5): 17.9 µM (inactive) | GI50 (MDA-MB-435): 16 µM (inactive) | GI50 (KM12): 19.8 µM (inactive) | GI50 (NCI-H522): 12 µM (inactive) | GI50 (OVCAR-5): 23.2 µM (inactive) | GI50 (MDA-MB-231): 18.7 µM (inactive) | GI50 (IGROV-1): 15.6 µM (inactive) | GI50 (Malme-3M): 19.8 µM (inactive) | GI50 (NCI-H226): 15.8 µM (inactive) | GI50 (SNB-19): 34.2 µM (inactive) | GI50 (DU-145): 13.3 µM (inactive) | GI50 (MCF7): 36.3 µM (inactive) | GI50 (Hs-578T): 22.2 µM (inactive) | GI50 (MOLT-4): 8.04 µM (inactive) | GI50 (NCI-H23): 32.8 µM (inactive) | GI50 (CAKI-1): 16.9 µM (inactive) | GI50 (UO-31): 17.6 µM (inactive) | GI50 (SF-268): 17.2 µM (inactive) | GI50 (TK-10): 17.6 µM (inactive) | GI50 (HT-29): 16.3 µM (inactive) | GI50 (T47D): 10.3 µM (inactive) | GI50 (RPMI-8226): 29.4 µM (inactive) | GI50 (SW-620): 21 µM (inactive) | GI50 (OVCAR-3): 17.1 µM (inactive) | GI50 (ACHN): 30.9 µM (inactive) | GI50 (A549): 21.9 µM (inactive) | GI50 (NCI-H460): 43.4 µM (inactive) | GI50 (SK-MEL-28): 16.6 µM (inactive) | GI50 (HCT-116): 18.7 µM (inactive) | GI50 (SK-OV-3): 17.1 µM (inactive) | GI50 (U-251): 39.5 µM (inactive) | GI50 (OVCAR-4): 42.7 µM (inactive) | GI50 (MDA-N): 20 µM (inactive) | GI50 (HCC 2998): 40 µM (inactive) | GI50 (NCI/ADR-RES): 16.6 µM (inactive) | GI50 (COLO 205): 19.7 µM (inactive) | GI50 (SK-MEL-2): 17.1 µM (inactive) | GI50 (SNB-75): 17.2 µM (inactive) | GI50 (SF-295): 16.4 µM (inactive) | GI50 (UACC-257): 18.1 µM (inactive) | GI50 (SR): 22 µM (inactive) | GI50 (SF-539): 22.8 µM (inactive) | GI50 (M14): 29.9 µM (inactive)
